Patent publication EP1984014B1, “USE OF TPO PEPTIDE COMPOUNDS AND PHARMACEUTICAL COMPOSITIONS IN THE TREATMENT OF ANEMIA” (Janssen Pharmaceutica NV, priority 2006, dated 2007)

Key:
[1] = system: mice treated with two rounds of carboplatin; assay: Example 5: two rounds of high-dose carboplatin, hematocrit and survival of mice; format: in vivo; conditions: of the mice not utilized for hematological evaluation; carboplatin alone versus combination therapy
Experimental: (§1) The effects of PEGylated TPO Compound No. 1 on mice treated with carboplatin were observed. For all examples herein, a 10 mg/ml stock solution of PEGylated TPO Compound No. 1 was prepared in sterile saline. For mixing, the preparation was placed on a gyratory shaker for 15min. at 200 rpm. This method was used to dissolve PEGylated TPO Compound No. 1 without foaming. The stock was filtered using a GV Millex (0.22um) filter. Dosing solutions were then prepared from this stock using sterile saline. The stock and dosing solutions were prepared fresh on the day of use.
Groups of mice were treated with two rounds of the chemotherapeutic agent (carboplatin) ten days apart, with each round consisting of two consecutive days of carboplatin (i.e., 70 mg/kg/day administered on Days -1 & 0 and Days 10 & 11) as delineated below. The dose of carboplatin utilized for these survival studies exceeded the maximal tolerated dose for mice (i.e., 120 mg/kg; administered as 60 mg/kg/day on 2 consecutive days). One hour following the second dose of carboplatin in each round (i.e., Day 0 and 11) mice were treated with PEGylated TPO Compound No. 1 (100ug/kg) or vehicle (sterile saline, SS, preservative-free 0.9% sodium chloride) by IV (bolus) injection as delineated below. The dose was administered on a per weight basis (100 ul/10g body weight). […]

[2] = system: mice treated with carboplatin; assay: Example 2: dosing seven days before and/or 1 hour after carboplatin, hematological parameters in mice; format: in vivo, BALB/c mouse
Experimental: as §1
The possibility that PEGylated TPO Compound No. 1 may sensitize bone marrow hematopoietic stem cells of mice to the toxic effects of carboplatin treatment was examined. For this study, a dose of PEGylated TPO Compound No. 1 was administered to the mice seven days prior to the carboplatin dose or immediately after carboplatin treatment. An additional group was treated with PEGylated TPO Compound No. 1 both prior to and after carboplatin administration. The effect of these dosing regimens on hematological parameters was also observed.
The groups of mice were treated with either carboplatin or vehicle (Phosphate Buffered Saline, PBS) by ip administration on Days 7 and 8 as delineated below. The optimal dose of carboplatin used to induce thrombocytopenia in the BALB/c mouse strain was previously determined to be a fractionated total dose of 120mg/kg given as two consecutive daily injections (i.e., 2x60mg/kg). Seven days prior to the first carboplatin dose or one (1) hour after the second dose of carboplatin, groups of mice were treated with PEGylated TPO Compound No. 1 (300ug/kg) or vehicle (sterile saline, SS, preservative-free 0.9% sodium chloride) by IV (bolus) injection as delineated in Table 2. An additional group was treated with PEGylated TPO Compound No. 1 both before (Day 0) and after (Day 8, t=1h) the carboplatin dose. All dosing was performed on a per-weight basis (100ul/10g body weight).
On Days 14, 18, 22 and 26, five mice in each test group were weighed and then euthanised using CO2-asphyxiation and exsanguination via cardiac puncture. The blood samples were transferred to separate EDTA (lavender-top) microcontainers for hematological evaluation. Groups of control mice (5) were processed on Days 14 and 26. The data are presented graphically as group means + SEM.

[3] = molecular target: T1, human TPO receptor, c-mpl (hTPOr) (Homo sapiens, UniProt P40238); assay: Example 7: Baf/3 hTPOr fos/lux luciferase reporter assay (relative luminescent units); format: cell-based
T1 construct: expressed in transfected cells
T1 sequence (P40238 26-635): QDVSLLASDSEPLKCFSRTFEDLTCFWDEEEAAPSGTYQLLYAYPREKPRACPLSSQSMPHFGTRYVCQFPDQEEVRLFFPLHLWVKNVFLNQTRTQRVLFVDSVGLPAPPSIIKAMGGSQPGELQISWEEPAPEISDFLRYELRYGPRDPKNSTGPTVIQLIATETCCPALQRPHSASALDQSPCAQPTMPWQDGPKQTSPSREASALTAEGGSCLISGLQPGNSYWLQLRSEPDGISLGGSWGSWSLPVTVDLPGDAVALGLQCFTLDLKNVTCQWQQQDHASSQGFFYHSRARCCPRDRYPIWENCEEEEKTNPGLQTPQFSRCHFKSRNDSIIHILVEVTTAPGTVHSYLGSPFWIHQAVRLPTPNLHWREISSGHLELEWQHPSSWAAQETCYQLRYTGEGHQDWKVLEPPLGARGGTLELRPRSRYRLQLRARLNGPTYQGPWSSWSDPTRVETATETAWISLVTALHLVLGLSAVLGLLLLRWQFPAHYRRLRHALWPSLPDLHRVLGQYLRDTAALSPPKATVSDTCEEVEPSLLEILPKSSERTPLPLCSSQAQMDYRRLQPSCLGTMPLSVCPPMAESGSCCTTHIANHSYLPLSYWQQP
Excerpt: The activity of the peptide compounds can be determined using standard relative luminescent units assay techniques. The assay employs, e.g., murine cells engineered to stably express the human TPO receptor and a luciferase reporter construct driven by the fos promoter. The assay may be performed as follows: Serum deprived Baf/3 hTPOr fos/lux cells expressing the human TPO receptor, c-mpl (hTPOr), and a luciferase reporter construct are exposed to increasing concentrations of either rhTPO or peptide compound for approximately 18 hours. Cells are then incubated in a medium containing a luciferase substrate and the luminescence of the cells is measured using a luminometer.

## Methoxypolyethyleneglycol20000-propionyl-L-Isoleucyl-L-Glutamyl-Glycyl-L-Prolyl-L-Threonyl-L-Leucyl-L-Arginyl-L-Glutaminyl-L-2-Naphthylalanyl-L-Leucyl-L-Alanyl-L-Alanyl-L-Arginyl-Sarcosyl-Ne-(methoxypolyethyleneglycol20000-propionyl-L-Isoleucyl-L-Glutamyl-Glycyl-L-Prolyl-L-Threonyl-L-Leucyl-L-Arginyl-L-Glutaminyl-L-2-Naphthylalanyl-L-Leucyl-L-Alanyl-L-Alanyl-L-Arginyl-Sarcosyl-)-Lysinamide [PEGylated TPO Compound No. 1]
[1]
  mice that died between days 4 and 18: 1
[2]; 300ug/kg iv on Day 0 (only), seven days prior to carboplatin
  carboplatin-induced changes in erythrocyte parameters: failed to affect
[2]; 300ug/kg iv on Day 8 (1 hour after the second carboplatin treatment) only
  decreases in hemoglobin levels, RBC counts and hematocrits caused by carboplatin: prevented
[2]; 300ug/kg iv on Day 8 with an additional dose on Day 0
  decreases in hemoglobin levels, RBC counts and hematocrits caused by carboplatin: prevented
[2]; co-treatment, all regimens, no statistical analysis
  body weight loss between Days 7 and 26: prevented this weight loss
[2]; treatment on Day 8 without or with additional treatment on Day 0
  onset of signs (hunching, unkempt): appeared to delay the onset of these signs
[2]; treatment on Days 0 and 8
  severity and duration of signs (hunching, unkempt): decreased the severity and duration
[3]; Baf/3 cells recombinantly expressing human TPO-R, approximately 18 hours
  EC50: ~5 pM
[3]; at the same concentration as TPO
  activation of TPO-R compared with TPO: stronger activation
[3]; increasing concentrations
  activation of Baf/3 cells recombinantly expressing human TPO-R: dose dependent
